In patent publication US20040044000A1, “Isoquinoline derivatives as matrix metalloproteinase inhibitors” (priority 2002, published 2004):

What was measured:
Type in all cases: biochemical
[1] = target: T1, MMP-13 catalytic domain (MMP-13CD) (Homo sapiens, UniProt P45452); experiment: Inhibition of MMP-13 catalytic domain (thiopeptolide substrate hydrolysis); conditions: Biological Table 1; read-out: MMP-13CD IC50
T1 construct: use the catalytic domain of the MMP-13 enzyme, namely matrix metalloproteinase-13 catalytic domain (“MMP-13CD”), rather than the corresponding full-length enzyme
Procedure, shortened: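 Catalytic domain of MMP-13 (MMP-13CD) with 100 μM Ac-Pro-Leu-Gly-thioester-Leu-Leu-Gly-OEt in 50 mM HEPES pH 7.0, 10 mM CaCl2, 1 mM DTNB at 22° C. Hydrolysis followed by absorbance at 405 nm; IC50 (μM) from multiple compound concentrations.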

[2] = target: T2, MMP-17 catalytic domain (MMP-17CD) (Homo sapiens, UniProt Q9ULZ9); experiment: Inhibition of MMP-17 catalytic domain (thiopeptolide substrate hydrolysis)
T2 construct: MMP-3 catalytic domain, MMP-12 catalytic domain, MMP-14 catalytic domain, and MMP-17 catalytic domain
T2 sequence (Q9ULZ9 126-295 limits assumed): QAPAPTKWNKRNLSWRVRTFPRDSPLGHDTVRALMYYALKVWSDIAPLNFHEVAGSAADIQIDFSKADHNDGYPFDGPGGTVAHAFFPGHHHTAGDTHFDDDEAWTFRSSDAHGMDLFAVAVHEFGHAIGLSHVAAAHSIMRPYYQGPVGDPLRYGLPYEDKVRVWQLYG
Description: (§1) The assays measure the amount by which a test compound reduces the hydrolysis of a thiopeptolide substrate catalyzed by a matrix metalloproteinase enzyme. Such assays are described in detail by Ye et al., in Biochemistry, 1992;31(45):11231-11235, which is incorporated herein by reference. One such assay is described below in Biological Method 1.
(§2) Thiopeptolide substrates show virtually no decomposition or hydrolysis at or below neutral pH in the absence of a matrix metalloproteinase enzyme. A typical thiopeptolide substrate commonly utilized for assays is Ac-Pro-Leu-Gly-thioester-Leu-Leu-Gly-OEt. A 100 μL assay mixture will contain 50 mM of N-2-hydroxyethylpiperazine-N′-2-ethanesulfonic acid buffer (“HEPES,” pH 7.0), 10 mM CaCl2, 100 μM thiopeptolide substrate, and 1 mM 5,5′-dithio-bis-(2-nitro-benzoic acid) (DTNB). The thiopeptolide substrate concentration may be varied, for example from 10 to 800 μM to obtain Km and Kcat values. The change in absorbance at 405 nm is monitored on a Thermo Max microplate reader (molecular Devices, Menlo Park, Calif.) at room temperature (22° C.). The calculation of the amount of hydrolysis of the thiopeptolide substrate is based on E412=13600 M^−1 cm^−1 for the DTNB-derived product 3-carboxy-4-nitrothiophenoxide. Assays are carried out with and without matrix metalloproteinase inhibitor compounds, and the amount of hydrolysis is compared for a determination of inhibitory activity of the test compounds.
(§3) Test compounds were evaluated at various concentrations in order to determine their respective IC50 values, the micromolar concentration of compound required to cause a 50% inhibition of catalytic activity of the respective enzyme.

[3] = target: MMP-3 catalytic domain (MMP-3CD) (Homo sapiens, UniProt P08254); experiment: Inhibition of MMP-3 catalytic domain (thiopeptolide substrate hydrolysis, MES pH 6.0)
Sequence of MMP-3 catalytic domain (MMP-3CD) (P08254 100-272 limits assumed, species assumed): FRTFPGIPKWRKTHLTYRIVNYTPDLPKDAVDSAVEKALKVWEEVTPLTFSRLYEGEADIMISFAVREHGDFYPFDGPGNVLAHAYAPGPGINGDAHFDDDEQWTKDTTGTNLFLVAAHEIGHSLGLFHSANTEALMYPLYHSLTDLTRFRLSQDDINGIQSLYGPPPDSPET
Description: as §1, §2, §3
It should be appreciated that the assay buffer used with MMP-3CD was 50 mM N-morpholinoethane sulfonate (“MES”) at pH 6.0 rather than the HEPES buffer at pH 7.0 described above.

[4] = target: MMP-14 catalytic domain (MMP-14CD) (Homo sapiens, UniProt P50281); experiment: Inhibition of MMP-14 catalytic domain (thiopeptolide substrate hydrolysis)
Description: as §1, §2, §3
(§4) The test described above for the inhibition of MMP-13 may also be adapted and used to determine the ability of the compounds of Formula I to inhibit the matrix metalloproteases MMP-1, MMP-2, MMP-3, MMP-7, MMP-9, MMP-12 and MMP-14.

[5] = target: T3, MMP-12 catalytic domain (MMP-12CD) (Homo sapiens, UniProt P39900); experiment: Inhibition of MMP-12 catalytic domain (thiopeptolide substrate hydrolysis)
T3 construct: MMP-3 catalytic domain, MMP-12 catalytic domain, MMP-14 catalytic domain, and MMP-17 catalytic domain
T3 sequence (P39900 106-263 limits assumed, species assumed): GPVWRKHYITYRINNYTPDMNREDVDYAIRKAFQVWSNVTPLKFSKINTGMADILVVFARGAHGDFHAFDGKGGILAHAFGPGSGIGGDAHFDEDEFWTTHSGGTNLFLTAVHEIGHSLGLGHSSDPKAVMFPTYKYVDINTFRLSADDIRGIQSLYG
Description: as §1, §2, §3, §4

IC50 [1] [µM] | IC50 [2] [µM] | IC50 [3] [µM] | IC50 [4] [µM] | IC50 [5] [µM] | Structure (SMILES)
0.85 | > 30 | > 30 | > 30 | > 30 | COc1ccc(CNC(=O)c2ccc3ccn(Cc4ccc(S(C)(=O)=O)cc4)c(=O)c3c2)cc1 [Example 52, 2-(4-methane-sulfonylbenzyl)-1-oxo-1,2-dihydro-isoquinoline-7-carboxylic Acid 4-methoxy-benzylamide]
0.019 | 14 | 4.1 | 16 | > 100 | O=C1CC(NC(=O)c2ccc(Cn3ccc4ccc(C#CCc5ccccc5)cc4c3=O)cc2)=NN1 [Example 22, N-(5-oxo-4,5-dihydro-1H-pyrazol-3-yl)-4-[1-oxo-7-(3-phenylprop-1-ynyl)-1H-isoquinolin-2-ylmethyl]benzamide]
